Data on four sequences can be found in patent US20070128217A1 (priority 2003, published 2007).

Assay [1] concerns antibodies in sera from SARS patients (sera 1a, 1b, 2, 6, 37, 62, London, SARS-yellow, SARS-green). The class given is binding, human. Set-up: Binding of serum 6 to linear peptides of protein X1 of SARS-CoV Urbani / Binding of serum 37 to linear peptides of protein X1 of SARS-CoV Urbani / Binding of serum 6 to looped/cyclic peptide (PEPSCAN-ELISA) / Binding of serum 37 to looped/cyclic peptide (PEPSCAN-ELISA) / Binding of serum 37 to looped/cyclic peptides of protein X1 of SARS-CoV Urbani / Binding of serum 6 to linear peptides of protein X2 / Binding of serum 37 to linear peptides of protein X2 / Binding of serum 37 to looped/cyclic peptides of protein X2 of SARS-CoV Urbani / Binding of serum 6 to linear peptides of protein M of SARS-CoV Urbani / Binding of serum 37 to linear peptides of protein M of SARS-CoV Urbani / Binding of serum 6 to looped/cyclic peptides of protein M of SARS-CoV Urbani / Binding of serum 37 to looped/cyclic peptides of protein M of SARS-CoV Urbani / Binding of serum 6 to linear peptides of protein X3 of SARS-CoV Urbani / Binding of serum 37 to linear peptides of protein X3 of SARS-CoV Urbani / Binding of serum 37 to looped/cyclic peptides of protein X3 of SARS-CoV Urbani / Binding of serum 6 to linear peptides of protein X4 of SARS-CoV Urbani / Binding of serum 37 to linear peptides of protein X4 of SARS-CoV Urbani / Binding of serum 37 to looped/cyclic peptides of protein X4 of SARS-CoV Urbani / Binding of serum 6 to linear peptides of protein X5 of SARS-CoV Urbani / Binding of serum 37 to linear peptides of protein X5 of SARS-CoV Urbani / Binding of serum 37 to looped/cyclic peptides of protein X5 of SARS-CoV Urbani / Binding of serum 6 to linear peptides of protein N of SARS-CoV Urbani / Binding of serum 37 to linear peptides of protein N of SARS-CoV Urbani / Binding of serum 6 to linear peptide (PEPSCAN-ELISA) / Binding of serum 1a to looped/cyclic peptides of protein N of SARS-CoV Urbani / Binding of serum 1b to looped/cyclic peptides of protein N of SARS-CoV Urbani / Binding of serum 2 to looped/cyclic peptides of protein N of SARS-CoV Urbani / Binding of serum 6 to looped/cyclic peptides of protein N of SARS-CoV Urbani / Binding of serum 37 to looped/cyclic peptides of protein N of SARS-CoV Urbani / Binding of serum 62 to looped/cyclic peptides of protein N of SARS-CoV Urbani / Binding of serum London to looped/cyclic peptides of protein N of SARS-CoV Urbani / Binding of serum SARS-green to looped/cyclic peptides of protein N of SARS-CoV Urbani: unit not given here.

Assay [2] has as its system control sera (pooled serum of ten healthy LUMC hospital workers; commercial negative donor pooled serum from the Dutch bloodbank). The class given is binding, human.
Assay [3] has as its system rabbit serum obtained by immunizing a rabbit with the SARS-CoV strain Frankfurt 1. The class given is binding. Also noted: Binding of a rabbit serum to linear peptides / Binding of a rabbit serum to looped peptides / Rabbit serum linear peptides / Rabbit serum looped peptides / Binding of a rabbit serum to linear peptides of protein N of SARS-CoV Urbani (Rabbit serum linear peptides) / Binding of a rabbit serum to looped/cyclic peptides of protein N of SARS-CoV Urbani (Rabbit serum looped peptides): unit not given here.

For IQFMMSRRRLLACLC, in assay [1], the “Binding of serum 1a to linear peptides of protein X2” value stood at 0.7, the “Binding of serum 1a to looped/cyclic peptides of protein X2 of SARS-CoV Urbani” value worked out at 0.4, the “Binding of serum 1b to linear peptides of protein X2” value was found to be 0.5 and the “Binding of serum 1b to looped/cyclic peptides of protein X2 of SARS-CoV Urbani” value came out at 0.2. In addition, in assay [1], the “Binding of serum 2 to linear peptides of protein X2” value stood at 0.4, the “Binding of serum 2 to looped/cyclic peptides of protein X2 of SARS-CoV Urbani” value was found to be 0.5, the “Binding of serum 6 to linear peptides of protein X2” value amounted to 0.6 and the “Binding of serum 6 to looped/cyclic peptides of protein X2 of SARS-CoV Urbani” value was found to be 0.3. In assay [1], the “Binding of serum 37 to linear peptides of protein X2” value worked out at 0.6, the “Binding of serum 37 to looped/cyclic peptides of protein X2 of SARS-CoV Urbani” value is given as 0.2, the “Binding of serum 62 to linear peptides of protein X2” value came to 0.7 and the “Binding of serum 62 to looped/cyclic peptides of protein X2 of SARS-CoV Urbani” value was determined as 0.3. For the same sequence, in assay [1], the “Binding of serum London to linear peptides of protein X2” value came out at 0.5, the “Binding of serum London to looped/cyclic peptides of protein X2 of SARS-CoV Urbani” value turned out to be 0.4, the “Binding of serum SARS-green to linear peptides of protein X2” value was 0.6 and the “Binding of serum SARS-green to looped/cyclic peptides of protein X2 of SARS-CoV Urbani” value was 0.2. Further, in assay [1], the “Binding of serum SARS-yellow to linear peptides of protein X2” value came to 0.8 and the “Binding of serum SARS-yellow to looped/cyclic peptides of protein X2 of SARS-CoV Urbani” value is listed as 0.5. For the same sequence, in assay [2], the “Binding of Control Serum Blood-Bank to Looped peptides” value is reported as 0.3, the “Binding of Control serum Blood-bank to linear peptides” value is on record as 0.8, the “Binding of Control serum LUMC to linear peptides” value is reported as 0.6 and the “Binding of Control serum LUMC to looped peptides” value was found to be 0.4. Further, in assay [3], the “Binding of a rabbit serum to linear peptides” value was determined as 0.5 and the “Binding of a rabbit serum to looped peptides” value is reported as 1.1.
As for IQLSLLKVTAFQHQN, in assay [1], the “Binding of serum 1a to linear peptides of protein X2” value was determined as 0.5, the “Binding of serum 1a to looped/cyclic peptides of protein X2 of SARS-CoV Urbani” value stood at 0.5, the “Binding of serum 1b to linear peptides of protein X2” value was 0.4 and the “Binding of serum 1b to looped/cyclic peptides of protein X2 of SARS-CoV Urbani” value was determined as 0.6. Moreover, in assay [1], the “Binding of serum 2 to linear peptides of protein X2” value worked out at 0.4, the “Binding of serum 2 to looped/cyclic peptides of protein X2 of SARS-CoV Urbani” value was found to be 0.3, the “Binding of serum 6 to linear peptides of protein X2” value was 0.5 and the “Binding of serum 6 to looped/cyclic peptides of protein X2 of SARS-CoV Urbani” value came out at 0.4. Moreover, in assay [1], the “Binding of serum 37 to linear peptides of protein X2” value stood at 0.6, the “Binding of serum 37 to looped/cyclic peptides of protein X2 of SARS-CoV Urbani” value is listed as 0.4, the “Binding of serum 62 to linear peptides of protein X2” value is listed as 0.3 and the “Binding of serum 62 to looped/cyclic peptides of protein X2 of SARS-CoV Urbani” value stood at 0.6. Besides, in assay [1], the “Binding of serum London to linear peptides of protein X2” value stood at 0.3, the “Binding of serum London to looped/cyclic peptides of protein X2 of SARS-CoV Urbani” value was determined as 0.2, the “Binding of serum SARS-green to linear peptides of protein X2” value amounted to 0.2 and the “Binding of serum SARS-green to looped/cyclic peptides of protein X2 of SARS-CoV Urbani” value is given as 0.2. Besides, in assay [1], the “Binding of serum SARS-yellow to linear peptides of protein X2” value was found to be 0.3 and the “Binding of serum SARS-yellow to looped/cyclic peptides of protein X2 of SARS-CoV Urbani” value is listed as 0.5. In assay [2], the “Binding of Control Serum Blood-Bank to Looped peptides” value stood at 0.6, the “Binding of Control serum Blood-bank to linear peptides” value was 0.4, the “Binding of Control serum LUMC to linear peptides” value is reported as 0.7 and the “Binding of Control serum LUMC to looped peptides” value stood at 0.6. For the same sequence, in assay [3], the “Binding of a rabbit serum to linear peptides” value is reported as 0.6 and the “Binding of a rabbit serum to looped peptides” value was 0.5.
Consider ISPKFTTSLSLHKLL, for which, in assay [1], the “Binding of serum 1a to linear peptides of protein X2” value was determined as 0.5, the “Binding of serum 1a to looped/cyclic peptides of protein X2 of SARS-CoV Urbani” value worked out at 0.5, the “Binding of serum 1b to linear peptides of protein X2” value came out at 0.4 and the “Binding of serum 1b to looped/cyclic peptides of protein X2 of SARS-CoV Urbani” value is listed as 0.5. In assay [1], the “Binding of serum 2 to linear peptides of protein X2” value is given as 0.4, the “Binding of serum 2 to looped/cyclic peptides of protein X2 of SARS-CoV Urbani” value stood at 0.4, the “Binding of serum 6 to linear peptides of protein X2” value is reported as 0.5 and the “Binding of serum 6 to looped/cyclic peptides of protein X2 of SARS-CoV Urbani” value is 0.4. In assay [1], the “Binding of serum 37 to linear peptides of protein X2” value was determined as 0.5, the “Binding of serum 37 to looped/cyclic peptides of protein X2 of SARS-CoV Urbani” value is recorded as 0.4, the “Binding of serum 62 to linear peptides of protein X2” value was 0.6 and the “Binding of serum 62 to looped/cyclic peptides of protein X2 of SARS-CoV Urbani” value was 0.7. Further, in assay [1], the “Binding of serum London to linear peptides of protein X2” value stood at 0.4, the “Binding of serum London to looped/cyclic peptides of protein X2 of SARS-CoV Urbani” value was 0.3, the “Binding of serum SARS-green to linear peptides of protein X2” value was 0.5 and the “Binding of serum SARS-green to looped/cyclic peptides of protein X2 of SARS-CoV Urbani” value is 0.2. Besides, in assay [1], the “Binding of serum SARS-yellow to linear peptides of protein X2” value is listed as 0.4 and the “Binding of serum SARS-yellow to looped/cyclic peptides of protein X2 of SARS-CoV Urbani” value came to 0.3. Further, in assay [2], the “Binding of Control Serum Blood-Bank to Looped peptides” value worked out at 0.7, the “Binding of Control serum Blood-bank to linear peptides” value was 0.7, the “Binding of Control serum LUMC to linear peptides” value worked out at 0.3 and the “Binding of Control serum LUMC to looped peptides” value is given as 0.5. Moreover, in assay [3], the “Binding of a rabbit serum to linear peptides” value is listed as 0.3 and the “Binding of a rabbit serum to looped peptides” value is given as 0.4.
For the sequence ITMTTVYHITVSQIQ, in assay [1], the “Binding of serum 1a to linear peptides of protein X2” value is on record as 0.7, the “Binding of serum 1a to looped/cyclic peptides of protein X2 of SARS-CoV Urbani” value was determined as 0.4, the “Binding of serum 1b to linear peptides of protein X2” value came out at 0.2 and the “Binding of serum 1b to looped/cyclic peptides of protein X2 of SARS-CoV Urbani” value was found to be 0.5. Further, in assay [1], the “Binding of serum 2 to linear peptides of protein X2” value came to 0.3, the “Binding of serum 2 to looped/cyclic peptides of protein X2 of SARS-CoV Urbani” value is reported as 0.2, the “Binding of serum 6 to linear peptides of protein X2” value is listed as 0.5 and the “Binding of serum 6 to looped/cyclic peptides of protein X2 of SARS-CoV Urbani” value came to 0.2. For the same sequence, in assay [1], the “Binding of serum 37 to linear peptides of protein X2” value came out at 0.7, the “Binding of serum 37 to looped/cyclic peptides of protein X2 of SARS-CoV Urbani” value is given as 0.4, the “Binding of serum 62 to linear peptides of protein X2” value was 0.4 and the “Binding of serum 62 to looped/cyclic peptides of protein X2 of SARS-CoV Urbani” value was 0.5. Further, in assay [1], the “Binding of serum London to linear peptides of protein X2” value is 0.5, the “Binding of serum London to looped/cyclic peptides of protein X2 of SARS-CoV Urbani” value is 0.2, the “Binding of serum SARS-green to linear peptides of protein X2” value was found to be 0.2 and the “Binding of serum SARS-green to looped/cyclic peptides of protein X2 of SARS-CoV Urbani” value is on record as 0.3. Besides, in assay [1], the “Binding of serum SARS-yellow to linear peptides of protein X2” value was 0.0 and the “Binding of serum SARS-yellow to looped/cyclic peptides of protein X2 of SARS-CoV Urbani” value is on record as 0.3. In assay [2], the “Binding of Control Serum Blood-Bank to Looped peptides” value turned out to be 0.5, the “Binding of Control serum Blood-bank to linear peptides” value was 0.4, the “Binding of Control serum LUMC to linear peptides” value was found to be 0.4 and the “Binding of Control serum LUMC to looped peptides” value came out at 0.5. For the same sequence, in assay [3], the “Binding of a rabbit serum to linear peptides” value is reported as 0.3 and the “Binding of a rabbit serum to looped peptides” value is 0.3.
